Test results reported in US11110186B2, “Anionic chelate compounds” (GENERAL ELECTRIC COMPANY, priority 2017, dated 2021).

test: Measurement of r1 and r2 relaxivities (Bruker mq60 relaxometer); type: physicochemical; conditions: in water at 60 MHz and 40° C.
Procedure: Manganese containing chelates were dissolved in water at concentrations ranging from […] Mn. T1 and T2 relaxation times were then measured at 60 MHz and 40° C. using a Bruker mq60 relaxometer. Linear fits (R^2>0.99 in all cases) of 1/T1 or 1/T2 as a function of Mn concentration gave r1 or r2 values respectively.
The values in Table 1 are relaxivities in water. The r1 value represents the ability of the chelate to generate T1 (or positive) contrast in a MR scanner while the r2 value represents the ability of the chelate to generate T2 (or negative) contrast in a MR scanner.

Row | Compound | r1 relaxivity [mM⁻¹ s⁻¹]
1 | CN1CCN2Cc3cccc(n3)CN(CC1)C(CCC(=O)NCCS(=O)(=O)O)C(=O)[O][Mn][O]C(=O)C2CCC(=O)NCCS(=O)(=O)O (stereo not shown) [Mn Chelate 1] | 3.4
2 | CN1CCN2Cc3cccc(n3)CN(CC1)C(CCCCNC(=O)[C@H](O)[C@@H](O)C(=O)O)C(=O)[O][Mn][O]C(=O)C2CCCCNC(=O)[C@H](O)[C@@H](O)C(=O)O (stereo partly shown) [Mn Chelate 2] | 4.6
3 | CN1CCN2CC(=O)[O][Mn][O]C(=O)CN(CC1)Cc1cccc(n1)C2 [Mn Platform, reference compound] | 1.7

test: not given; conditions: estimated in DMSO; arm —C(═O)—N—R2R3 of Formula I; cited from earlier work

Row | Compound | pKa (approx.)
4 | CC(=O)NC/C=C1\SC(=O)NC1=O | ~6.8
5 | CC(=O)NCCc1ccc(S(=O)(=O)C[N+](=O)[O-])cc1 | ~7.1
6 | CC(=O)NCCc1cc([N+](=O)[O-])ccc1S | ~5.5
7 | CC(=O)NCCc1ccc(C(=O)C[N+](=O)[O-])cc1 | ~7.7
8 | CC(=O)NCCc1cc([N+](=O)[O-])cc([N+](=O)[O-])c1O | ~5.1
9 | CC(=O)NCCc1ccc(C(C#N)C#N)cc1 | ~4.2
10 | CC(=O)NCCS(=O)(=O)O | ~1.6
